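Five compound concentrations were applied to cells in 96-well plates for 48 hours; endpoints were derived by simple linear interpolation of the resulting dose-response curve. The concentration for 50% growth inhibition is given as GI50.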 The source made the active and inactive calls. No stated cut-off is given here; in the data, active = GI50 up to about 1.1 µM and inactive = higher.
What was measured:
Assay in all cases: growth of human tumour cells (NCI), 48 h
TK-10 = tested on: TK-10
OVCAR-5 = tested on: OVCAR-5
ACHN = tested on: ACHN
HOP-92 = tested on: HOP-92
HCT-15 = tested on: HCT-15
OVCAR-3 = tested on: OVCAR-3
Malme-3M = tested on: Malme-3M
U-251 = tested on: U-251
MDA-N = tested on: MDA-N
EKVX = tested on: EKVX
T47D = tested on: T47D
NCI-H23 = tested on: NCI-H23
CCRF-CEM = tested on: CCRF-CEM
SN12C = tested on: SN12C
MOLT-4 = tested on: MOLT-4
HOP-62 = tested on: HOP-62
SF-539 = tested on: SF-539
PC-3 = tested on: PC-3
COLO 205 = tested on: COLO 205
SK-MEL-2 = tested on: SK-MEL-2
M14 = tested on: M14
OVCAR-4 = tested on: OVCAR-4
BT-549 = tested on: BT-549
SK-MEL-5 = tested on: SK-MEL-5
HCT-116 = tested on: HCT-116
SNB-19 = tested on: SNB-19
OVCAR-8 = tested on: OVCAR-8
HL-60 = tested on: HL-60
UO-31 = tested on: UO-31
A498 = tested on: A498
KM12 = tested on: KM12
SF-268 = tested on: SF-268
Hs-578T = tested on: Hs-578T
IGROV-1 = tested on: IGROV-1
K562 = tested on: K562
HT-29 = tested on: HT-29
NCI-H226 = tested on: NCI-H226
SK-OV-3 = tested on: SK-OV-3
786-0 = tested on: 786-0
DU-145 = tested on: DU-145
MCF7 = tested on: MCF7
RPMI-8226 = tested on: RPMI-8226
A549 = tested on: A549
CAKI-1 = tested on: CAKI-1
MDA-MB-435 = tested on: MDA-MB-435
NCI-H460 = tested on: NCI-H460
SR = tested on: SR
HCC 2998 = tested on: HCC 2998
MDA-MB-231 = tested on: MDA-MB-231
NCI-H522 = tested on: NCI-H522
SF-295 = tested on: SF-295
LOX IMVI = tested on: LOX IMVI
RXF 393 = tested on: RXF 393
SW-620 = tested on: SW-620
SK-MEL-28 = tested on: SK-MEL-28
UACC-257 = tested on: UACC-257

Measured: GI50

CC(C)=CCN1CC(C)C(=O)Nc2ccccc21 (stereo unspecified)
inactive: TK-10 > 100 µM | OVCAR-5 > 100 µM | ACHN > 100 µM | HOP-92 49 µM | OVCAR-3 > 100 µM | Malme-3M > 100 µM | U-251 > 100 µM | MDA-N > 100 µM | EKVX > 100 µM | T47D > 100 µM | NCI-H23 > 100 µM | CCRF-CEM > 100 µM | SN12C > 100 µM | MOLT-4 > 100 µM | HOP-62 > 100 µM | SF-539 > 100 µM | PC-3 > 100 µM | COLO 205 > 100 µM | SK-MEL-2 > 100 µM | M14 > 100 µM | OVCAR-4 > 100 µM | BT-549 > 100 µM | SK-MEL-5 42.6 µM | HCT-116 > 100 µM | SNB-19 > 100 µM | OVCAR-8 78.9 µM | HL-60 > 100 µM | UO-31 > 100 µM | A498 > 100 µM | KM12 > 100 µM | SF-268 > 100 µM | Hs-578T > 100 µM | IGROV-1 > 100 µM | K562 > 100 µM | HT-29 > 100 µM | NCI-H226 65.2 µM | SK-OV-3 > 100 µM | 786-0 > 100 µM | DU-145 > 100 µM | MCF7 61.4 µM | RPMI-8226 > 100 µM | A549 > 100 µM | CAKI-1 > 100 µM | MDA-MB-435 > 100 µM | NCI-H460 93.3 µM | SR > 100 µM | HCC 2998 > 100 µM | MDA-MB-231 > 100 µM | NCI-H522 66.8 µM | SF-295 > 100 µM | LOX IMVI > 100 µM | RXF 393 > 100 µM | SW-620 > 100 µM | SK-MEL-28 > 100 µM | UACC-257 44.7 µM
> 100 µM: HCT-15

Source: ChEMBL document CHEMBL1201862, “PubChem BioAssay data set” (2004)
